Measurements as given in article PMC13500670, “The U1 snRNP protein U1C and Helix H of U1 snRNA are critical for small molecule splicing modulator function” (Nature Communications, 2026).

Columns and labels:
[1] = biological target: T1, U1 snRNP + FOXM1 5' ss oligo (Homo sapiens, UniProt P09234); assay: FP: U1 snRNP binding to FOXM1 5' ss oligo (Supplementary Fig. 2)
T1 construct: host or cells: either HeLa-S3 U1A-HTP cells (native, as F1) or E. coli proteins (reconstituted, as F2)
Protocol: All of 5′-FAM labeled RNA oligos used in this study were synthesized and purified by IDT (USA). Fluorescence polarization (FP) assays were performed in binding buffer (20 mM HEPES pH 7.5, 1 mM MgCl2, 200 mM KCl, 0.01% TritonX-100, 0.1%PEG3350, 2%DMSO) at room temperature using a Envision HTS Plate Reader system (Revvity). Each reaction system contains 3 nM of FAM-labeled RNA oligo, reconstituted U1 snRNP (or native U1 snRNP, or full-length U1 snRNA, or the 5′end of U1 snRNA) at twofold increasing concentrations, 800 nM (for reconstituted U1 snRNP) or 400 nM (for native U1 snRNP) U1C, different small molecules in DMSO (10 μM unless otherwise stated). The equilibrium dissociation constants (Kd) of binding reaction were calculated using the following single-site binding model formula in GraphPad Prism: y=START+(END−START)x/kD+x where x and y represent the concentration of U1 snRNP (or U1 snRNA) and the polarization value measured respectively, START represents the polarization value of protein-free nucleic acid probe, END represents the maximum polarization value when U1 snRNP (or U1 snRNA) binds to the fluorescently labeled 5′ ss oligo. All FP experiments are carried out in two distinct biological replicates and error bars represent the standard deviation.

[2] = tested on: cassette exon / GA/GU iExon inclusion, HEK293 cells, scr siRNA; assay: RNA-seq splicing analysis, compound dose response, scrambled (mock) siRNA; assay type: cell-based, human
Description: (§1) Skipped exons are highly enriched for noncanonical 5′ ss sequences (on either the intronic or exonic side), which account for 90% of skipped exons (Supplementary Fig. 8C). For example, among skipped exons with a canonical exonic 5′ ss sequence, 74% contain noncanonical intron sequence. These observations are consistent with the previous published role for U1C stabilization of the U1 snRNA-pre-mRNA duplex at the 5′ ss[25]–[28]. […] We will refer to these as class I exons for clarity in later discussion.
(§2) We next examined the effect of U1C knockdown on compound-mediated splicing. […] We next used the complete dose response to calculate the effective concentration at which deltaPSIcompound-DMSO is 30 (EC-dPSI30).
(§3) HEK293T cells were grown in DMEM media with 10% FBS. 500,000 cells in 1.75 mL of media were plated into a 6-well plate for approximately 6 h. Either siRNA negative control (ThermoFisher Silencer^TM Negative control #2, AM4613) or U1C siRNA (ThermoFisher Silencer^TM Select Pre-designed siRNA, S13225) were transfected for a final concentration of 25 nM using Invitrogen Lipofectamine RNAiMax (13778-150). In brief, 10 μL 5 μM siRNA was added to 115 μL of OptiMEM, while 5 μL Lipofectamine added to 120 μL OptiMEM for 5 minu before mixing the solutions and incubating for 20 min. 250 μL of Lipofectamine:siRNA solution was gentle added to the 1.75 mL cells. After 24 h post-transfection, cells were treated with 10 μL compound resuspended in DMSO. […] Each compound-treated experimental condition was treated and collected in duplicate, while four DMSO only treated samples per siRNA transfection were collected. RNA was isolated using KingFisher^TM Apex instrument and the MagMAX™ mirVana™ Total RNA Isolation Kit (A27828) by Thermo Fisher according to manufacturer’s protocol. Isolated RNA was submitted to Admera Health for library preparation (polyA selected, stranded) and mRNA-sequencing and >20 M 150 bp pair-end reads were returned.
RNAseq and splicing analysis were described earlier using DEDseq (https:// github.com/liwc01/DEDSeq[18]) with minor modifications. RNA sequencing reads were mapped to human genome (hg19) using STAR (version 2.7.10b); only uniquely mapped reads (with MAPQ > 10) with <5 nt/100 nt mismatches and properly paired reads were used. For splicing analysis, all junction reads (read with a gap in alignment indicating splicing) were used, including the ones mapped to unannotated splice sites. Reads were counted for different exons (for cassette exon [CE]) or exonic regions (for A5′ss or A3′ss). For each splicing event, a percent-spliced-in (PSI) value was calculated using the percent of average read number supporting the inclusion among all reads supporting either the inclusion or the exclusion. A minimum of 10 for the denominator of PSI calculation was required. Otherwise, a “NA” value would be generated. PSI values for biological replicates were averaged, and the PSI difference between the two treatment groups was calculated. For a statistical test, a 2 × 2 read counts table was made for each event, with rows for reads supporting inclusion or exclusion, and columns for the two comparing sample groups. Fisher’s exact test was used for the statistical tests. For biological replicates, each pair of the testing and control sample was analyzed by Fisher’s exact test and the geometric mean of all P-values was reported as a final P-value. PSI change (deltaPSI) of >10% (or < −10%) and P < 0.001 was used to select splicing events being regulated by the treatment. PSI calculation, Fisher’s exact test were performed using R (4.0.5). 5′ ss composition analysis was performed as described in ref. [25]. Potency of splicing modulator was determined by plotting dPSI and identifying the concentration at which the change in PSI reached 30% and reported as EC_dPSI30.

[3] = tested on: cassette exon / GA/GU iExon inclusion, HEK293 cells, U1C KD; assay: RNA-seq splicing analysis, compound dose response, U1C knockdown; assay type: cell-based, human
Description: as §1, §2, §3
RNAseq and splicing analysis were described earlier using DEDseq (https:// github.com/liwc01/DEDSeq[18]) with minor modifications. RNA sequencing reads were mapped to human genome (hg19) using STAR (version 2.7.10b); only uniquely mapped reads (with MAPQ > 10) with <5 nt/100 nt mismatches and properly paired reads were used. For splicing analysis, all junction reads (read with a gap in alignment indicating splicing) were used, including the ones mapped to unannotated splice sites. Reads were counted for different exons (for cassette exon [CE]) or exonic regions (for A5′ss or A3′ss). For each splicing event, a percent-spliced-in (PSI) value was calculated using the percent of average read number supporting the inclusion among all reads supporting either the inclusion or the exclusion. A minimum of 10 for the denominator of PSI calculation was required. Otherwise, a “NA” value would be generated. PSI values for biological replicates were averaged, and the PSI difference between the two treatment groups was calculated. For a statistical test, a 2 × 2 read counts table was made for each event, with rows for reads supporting inclusion or exclusion, and columns for the two comparing sample groups. […] For biological replicates, each pair of the testing and control sample was analyzed by Fisher’s exact test and the geometric mean of all P-values was reported as a final P-value. […] Potency of splicing modulator was determined by plotting dPSI and identifying the concentration at which the change in PSI reached 30% and reported as EC_dPSI30.

effect on binding between U1 snRNP and FOXM1 5' ss oligo [1]: no effect
SMILES: Cc1cn2nc(-c3cc(=O)n4cc(N5CCNC6(CC6)C5)ccc4n3)cc(C)c2n1 [Risdiplam, risdiplam]
geomean pEC_dPSI30 for all GA/GU iExons ([2]; Fig. 8C, mock knockdown, -log10 of compound concentration when dPSI achieves 30%): 6.05
saturation PSI of PDXDC1 iExon ([2]; highest dose, mock and U1C KD reach similar saturation): 40
U1CKD Log10 effect ([3]; Fig. 8C picture, pEC-dPSI30 mock versus U1C KD): -0.42
geomean pEC_dPSI30 for all GA/GU iExons ([3]; Fig. 8C, U1C KD): 5.63
